Assay results taken from PubChem BioAssay (NCI).
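Where inhibition never reached the appropriate level, the endpoint shown equals the highest concentration tested. Otherwise, values were interpolated linearly from a five-concentration, 48-hour dose response in 96-well plates. GI50 = concentration required for 50% inhibition of growth. At the TGI there is no net growth.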

How the values were obtained:
Assay in all cases: DTP human tumour cell line panel, 48 h
[1] = test system: 786-0 renal
[2] = test system: A498 renal
[3] = test system: A549 NSCLC
[4] = test system: ACHN renal
[5] = test system: BT-549 breast
[6] = test system: CAKI-1 renal
[7] = test system: CCRF-CEM leukemia
[8] = test system: COLO 205 colon
[9] = test system: DU-145 prostate
[10] = test system: EKVX NSCLC
[11] = test system: HCC-2998 colon
[12] = test system: HCT-116 colon
[13] = test system: HCT-15 colon
[14] = test system: HL-60(TB) leukemia
[15] = test system: HOP-62 NSCLC
[16] = test system: HOP-92 NSCLC
[17] = test system: HS 578T breast
[18] = test system: HT29 colon
[19] = test system: IGROV1 ovarian
[20] = test system: K-562 leukemia
[21] = test system: KM12 colon
[22] = test system: LOX IMVI melanoma
[23] = test system: M14 melanoma
[24] = test system: MALME-3M melanoma
[25] = test system: MCF7 breast
[26] = test system: MDA-MB-231 breast
[27] = test system: MDA-MB-435
[28] = test system: MOLT-4 leukemia
[29] = test system: NCI-H226 lung
[30] = test system: NCI-H23 lung
[31] = test system: NCI-H460 lung
[32] = test system: NCI-H522 lung
[33] = test system: NCI/ADR-RES ovarian
[34] = test system: OVCAR-3 ovarian
[35] = test system: OVCAR-4 ovarian
[36] = test system: OVCAR-5 ovarian
[37] = test system: OVCAR-8 ovarian
[38] = test system: PC-3 prostate
[39] = test system: RPMI-8226 leukemia
[40] = test system: RXF 393 renal
[41] = test system: SF-268 CNS
[42] = test system: SF-295 CNS
[43] = test system: SF-539 CNS
[44] = test system: SK-MEL-2 melanoma
[45] = test system: SK-MEL-28 melanoma
[46] = test system: SK-MEL-5 melanoma
[47] = test system: SK-OV-3 ovarian
[48] = test system: SN12C renal
[49] = test system: SNB-19 CNS
[50] = test system: SNB-75 CNS
[51] = test system: SR leukemia
[52] = test system: SW-620 colon
[53] = test system: T-47D breast
[54] = test system: TK-10 renal
[55] = test system: U251 CNS
[56] = test system: UACC-257 melanoma
[57] = test system: UACC-62 melanoma
[58] = test system: UO-31 renal

## CCC(CC)n1c(=O)c(SC2=NC3C(NN2)N(CC)C(=O)N3CC)c(C(=O)O)c2ccccc21 (configuration not stated)
[1]
  GI50: 1530 nM
  TGI: > 100000 nM
[2]
  GI50: 33700 nM
  TGI: > 87200 nM
[3]
  GI50: 1510 nM
  TGI: > 100000 nM
[4]
  GI50: 1580 nM
  TGI: > 100000 nM
[5]
  GI50: 1470 nM
  TGI: 6720 nM
[6]
  GI50: 1220 nM
  TGI: 32300 nM
[7]
  GI50: 1130 nM
  TGI: > 100000 nM
[8]
  GI50: 771 nM
  TGI: 1830 nM
[9]
  GI50: 1300 nM
  TGI: > 100000 nM
[10]
  GI50: 6670 nM
  TGI: > 100000 nM
[11]
  GI50: 1080 nM
[12]
  GI50: 1010 nM
  TGI: > 33700 nM
[13]
  GI50: 969 nM
  TGI: > 100000 nM
[14]
  GI50: 767 nM
  TGI: 2300 nM
[15]
  GI50: 1460 nM
  TGI: > 57000 nM
[16]
  GI50: 18300 nM
  TGI: > 100000 nM
[17]
  GI50: 1220 nM
  TGI: 99200 nM
[18]
  GI50: 909 nM
[19]
  GI50: 1500 nM
  TGI: > 100000 nM
[20]
  GI50: 1000 nM
  TGI: > 100000 nM
[21]
  GI50: 1200 nM
  TGI: > 100000 nM
[22]
  GI50: 1260 nM
  TGI: > 100000 nM
[23]
  GI50: 1050 nM
  TGI: > 55200 nM
[24]
  GI50: 2660 nM
  TGI: > 100000 nM
[25]
  GI50: 1030 nM
  TGI: > 100000 nM
[26]
  GI50: 1270 nM
  TGI: > 71900 nM
[27]
  GI50: 2030 nM
  TGI: 5010 nM
[28]
  GI50: 1150 nM
  TGI: > 48200 nM
[29]
  GI50: 1110 nM
  TGI: 5780 nM
[30]
  GI50: 3590 nM
  TGI: > 100000 nM
[31]
  GI50: 1110 nM
  TGI: > 54100 nM
[32]
  GI50: 578 nM
  TGI: 1460 nM
[33]
  GI50: 974 nM
[34]
  GI50: 966 nM
  TGI: 3490 nM
[35]
  GI50: 6560 nM
  TGI: > 100000 nM
[36]
  GI50: 1280 nM
  TGI: > 100000 nM
[37]
  GI50: 1050 nM
[38]
  GI50: 1250 nM
  TGI: > 100000 nM
[39]
  GI50: 3760 nM
  TGI: > 100000 nM
[40]
  GI50: 805 nM
  TGI: 3280 nM
[41]
  GI50: 2030 nM
  TGI: > 100000 nM
[42]
  GI50: 1020 nM
  TGI: > 46800 nM
[43]
  GI50: 811 nM
  TGI: 2380 nM
[44]
  GI50: 1080 nM
  TGI: > 55000 nM
[45]
  GI50: 2200 nM
  TGI: > 100000 nM
[46]
  GI50: 1380 nM
  TGI: 7640 nM
[47]
  GI50: 1450 nM
  TGI: > 94100 nM
[48]
  GI50: 1310 nM
  TGI: > 100000 nM
[49]
  GI50: 1660 nM
  TGI: > 100000 nM
[50]
  GI50: 1210 nM
  TGI: > 33400 nM
[51]
  GI50: 805 nM
  TGI: > 49000 nM
[52]
  GI50: 1480 nM
  TGI: > 100000 nM
[53]
  GI50: 6140 nM
  TGI: > 100000 nM
[54]
  GI50: 14500 nM
  TGI: > 89800 nM
[55]
  GI50: 1130 nM
  TGI: > 100000 nM
[56]
  GI50: 5530 nM
  TGI: > 100000 nM
[57]
  GI50: 1200 nM
  TGI: 36500 nM
[58]
  GI50: 1540 nM
  TGI: > 100000 nM
